We go through 17 compounds from ChEMBL document CHEMBL3272044, “Cholinergic compounds. 9. Cyclohexane analogues of deoxamuscarine and derivatives” (J Med Chem, 1977).

A value given as a limit tells only on which side of the number the result lay.

The species entered for this experiment is Cavia porcellus. Description: Activity at muscarinic receptor in guinea pig terminal ileum assessed as compound required for 50% effect relative to acetylcholine. The class given is tissue-based.
With `C[C@H]1C[C@H](C[N+](C)(C)C)C[C@H]1O`, the Ratio turned out to be 454.

For `C[N+](C)(C)C[C@H]1CC[C@@H](O)C1`, the Ratio was determined as 3590. With `C[N+](C)(C)CC1CCCC1`, the Ratio was 16. Take `C[C@H]1C[C@H](C[N+](C)(C)C)C[C@@H]1O`: the Ratio was 100.

Consider `C[N+](C)(C)C[C@H]1CCC(=O)C1`, for which the Ratio was determined as 50. In the case of `C[C@@H]1C[C@H](C[N+](C)(C)C)C[C@@H]1O`, the Ratio worked out at 500.

Regarding `C[N+](C)(C)CC1CCCCC1`, the Ratio stood at 203. As to `C[N+](C)(C)CC1CC=CC1`, the Ratio was 11. Consider `C[N+](C)(C)C[C@@H]1CC=CCC1`, for which the Ratio stood at 269. Take `C[N+](C)(C)C[C@H]1CCC[C@H](O)C1` (relative stereo): the Ratio came out at 2900.

As for `C[C@H]1CC[C@@H](C[N+](C)(C)C)C1`, the Ratio stood at 100. Under `CC1C[C@H](C[N+](C)(C)C)CC1=O` (some centres not stated) stands 0.5. As to `C[C@@H]1C[C@H](C[N+](C)(C)C)C[C@H]1O`, the Ratio came out at 9.8. Under `C[N+](C)(C)C[C@H]1CC[C@H](O)C1` stands 221; under `C[N+](C)(C)C[C@H]1CCCC(=O)C1`, 507. Turning to `C[N+](C)(C)C[C@H]1CCC[C@@H](O)C1` (relative stereo), the Ratio is more than 10000. Consider `CC1=CC[C@@H](C[N+](C)(C)C)C1`, for which the Ratio was 30.
